According to patent publication US20040082021A1, “Method for assaying compounds or agents for ability to decrease the activity of microsomal prostaglandin E synthase or hematopoietic prostaglandin D synthase” (Aventis Pharmaceuticals Inc., priority 2002, published 2004):

Molecular target: T1, human hPGDS (Homo sapiens, UniProt O60760)
T1 construct: made in house; host or cells: E. coli FL21 (DE3) as printed, pT7-7 vector
Assay: Fluorescence polarization assay of hematopoietic prostaglandin D synthase (hPGDS)
Assay type: biochemical
Settings: conversion of PGH2 to PGD2, FIG. 8 histogram
Method: A fluorescence polarization (FP) assay to measure hPGDS activity has also been developed (FIGS. 3 and 4). The assay is configured based on the fluorescence polarization principle. hPGDS was mixed with PGH2, glutathione, and the compound or agent being evaluated. After a short period of time (about 30 seconds), a stop solution containing FeCl2 (20 mM) was added to quench any remaining PGH2, which would undergo spontaneous conversion to a mixture of PGD2 and PGE2, and thus interfere with the quantification of the enzymatic conversion of PGH2 to PGD2 (FIG. 3). A detection solution containing a fluorescence labeled (Texas Red) tracer (PGD2) and anti-PGD2 antibody was then added in order to generate the specific signal that is inversely proportional to the production of PGD2 (FIG. 4). The PGD2 generated from the enzymatic reaction competed specifically for the antibody and released the fluorescence labeled tracer. For reasons discussed above, a decrease or inhibition of PGD2 synthase activity results in increased fluorescence polarization (FP) value. […]
A control mixture was prepared that was identical to the mixture containing the enzyme, wherein the control mixture was treated in a manner identical the mixture containing the enzyme, i.e., same incubation durations, etc. […] The fluorescence polarization measurement was made while the measuring instrument is in FP mode. […]

T1 sequence (O60760 whole entry): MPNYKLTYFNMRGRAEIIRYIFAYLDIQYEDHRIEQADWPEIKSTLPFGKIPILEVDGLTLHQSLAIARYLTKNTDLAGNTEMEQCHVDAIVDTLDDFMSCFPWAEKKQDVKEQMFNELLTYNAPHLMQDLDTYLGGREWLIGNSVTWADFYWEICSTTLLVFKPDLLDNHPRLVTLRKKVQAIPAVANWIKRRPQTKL

decrease in activity of hPGDS detected by FP method: decreases the activity of hPGDS
Compound: c1ccc(C(OC2CCN(CCCc3nn[nH]n3)CC2)c2ccccc2)cc1 [HQL 79]
